Laboratory results published in PubChem BioAssay (NCI).
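Cultured in 96-well plates, cells were exposed to test compound for 48 hours across five concentrations. TGI is the concentration that stops growth completely.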

Tests used:
Experiment in all cases: NCI tumour cell line growth inhibition, 48 h
786-0 renal = tested on: 786-0 renal
ACHN renal = tested on: ACHN renal
CCRF-CEM leukemia = tested on: CCRF-CEM leukemia
HCT-116 colon = tested on: HCT-116 colon
HL-60(TB) leukemia = tested on: HL-60(TB) leukemia
HOP-62 NSCLC = tested on: HOP-62 NSCLC
K-562 leukemia = tested on: K-562 leukemia
OVCAR-5 ovarian = tested on: OVCAR-5 ovarian
RXF 393 renal = tested on: RXF 393 renal
SK-OV-3 ovarian = tested on: SK-OV-3 ovarian
HCT-15 colon = tested on: HCT-15 colon
OVCAR-4 ovarian = tested on: OVCAR-4 ovarian
RPMI-8226 leukemia = tested on: RPMI-8226 leukemia
SNB-19 CNS = tested on: SNB-19 CNS

With COc1c(-c2ccc(F)cc2)oc2c(CC(=O)O)cccc2c1=O the TGI (786-0 renal) was > 100 µM, the TGI (ACHN renal) was > 100 µM and the TGI (CCRF-CEM leukemia) was > 100 µM. For the same compound, the TGI (HCT-116 colon) was > 100 µM, the TGI (HL-60(TB) leukemia) was > 100 µM and the TGI (HOP-62 NSCLC) was > 100 µM. The TGI (K-562 leukemia) was > 100 µM, the TGI (OVCAR-5 ovarian) was > 100 µM and the TGI (RXF 393 renal) was > 100 µM. The TGI (SK-OV-3 ovarian) was > 100 µM.
N#Cc1c2c(c(Nc3cccc(C(F)(F)F)c3)n3c1nc1ccccc13)CCCC2 was tested, and the TGI (786-0 renal) was 27.9 µM, the TGI (ACHN renal) was > 100 µM and the TGI (HCT-116 colon) was > 100 µM. The TGI (HCT-15 colon) was > 100 µM, the TGI (HOP-62 NSCLC) was 36.3 µM and the TGI (OVCAR-4 ovarian) was > 100 µM. The TGI (OVCAR-5 ovarian) was 46.6 µM, the TGI (RPMI-8226 leukemia) was > 100 µM and the TGI (RXF 393 renal) was 86.2 µM. The TGI (SK-OV-3 ovarian) was 48 µM.
In the case of CC(C)C1CCC(=O)CC1CCCCC1CC(=O)CC1O[Si](C)(C)C(C)(C)C (configuration not stated), the TGI (786-0 renal) was 17.1 µM, the TGI (ACHN renal) was 15.2 µM and the TGI (CCRF-CEM leukemia) was > 22.2 µM. It also gave a TGI (HCT-116 colon) of 15.3 µM, a TGI (HCT-15 colon) of 21.4 µM and a TGI (HOP-62 NSCLC) of 33.7 µM. The TGI (K-562 leukemia) was > 34.9 µM, the TGI (OVCAR-4 ovarian) was 29.3 µM and the TGI (OVCAR-5 ovarian) was 26.2 µM. The TGI (RPMI-8226 leukemia) was 5.6 µM, the TGI (RXF 393 renal) was 27.8 µM and the TGI (SK-OV-3 ovarian) was 25.7 µM. It also gave a TGI (SNB-19 CNS) of 13.2 µM.
For CC1=C(C(=O)NNC(=O)c2ccccc2O)CC(C(=O)NNC(=O)c2ccccc2O)=C(C)N1, the TGI (786-0 renal) was > 61.7 µM, the TGI (ACHN renal) was > 88.7 µM and the TGI (CCRF-CEM leukemia) was > 35.5 µM. For the same compound, the TGI (HCT-116 colon) was > 51.5 µM, the TGI (HCT-15 colon) was > 100 µM and the TGI (HOP-62 NSCLC) was > 86.2 µM. The TGI (K-562 leukemia) was > 100 µM, the TGI (OVCAR-4 ovarian) was > 100 µM and the TGI (OVCAR-5 ovarian) was > 100 µM. The TGI (RPMI-8226 leukemia) was > 100 µM, the TGI (RXF 393 renal) was > 100 µM and the TGI (SK-OV-3 ovarian) was > 100 µM. The TGI (SNB-19 CNS) was > 100 µM.
O=C(O)C1Cc2[nH]c3ccccc3c2C2CCCC12 (configuration not stated) was tested, and the TGI (786-0 renal) was > 100 µM, the TGI (ACHN renal) was > 100 µM and the TGI (CCRF-CEM leukemia) was > 100 µM. The TGI (HCT-116 colon) was > 100 µM, the TGI (HCT-15 colon) was > 100 µM and the TGI (K-562 leukemia) was > 100 µM. The TGI (OVCAR-4 ovarian) was > 100 µM, the TGI (OVCAR-5 ovarian) was > 100 µM and the TGI (SK-OV-3 ovarian) was > 100 µM. The TGI (SNB-19 CNS) was > 100 µM.
With CCOC(=O)c1cc(C2CCN(Cc3ccccc3)C2=O)c(C(=O)/C=C(/C)N)[nH]1 (configuration not stated) the TGI (786-0 renal) was > 100 µM, the TGI (ACHN renal) was > 100 µM and the TGI (HCT-116 colon) was > 100 µM. The TGI (HCT-15 colon) was > 100 µM, the TGI (HOP-62 NSCLC) was > 100 µM and the TGI (K-562 leukemia) was > 100 µM. For the same compound, the TGI (OVCAR-4 ovarian) was > 100 µM, the TGI (OVCAR-5 ovarian) was > 100 µM and the TGI (RPMI-8226 leukemia) was > 100 µM. For the same compound, the TGI (RXF 393 renal) was > 100 µM, the TGI (SK-OV-3 ovarian) was > 100 µM and the TGI (SNB-19 CNS) was > 100 µM.
For CC(C)(CN1CCCCC1)C(=O)CC(SCCS(=O)(=O)O)c1ccccc1 (configuration not stated), the TGI (786-0 renal) was 25.4 µM, the TGI (ACHN renal) was 52.9 µM and the TGI (CCRF-CEM leukemia) was 32.1 µM. It also gave a TGI (HCT-116 colon) of 18.2 µM, a TGI (HCT-15 colon) of 42.9 µM and a TGI (HOP-62 NSCLC) of 62.1 µM. For the same compound, the TGI (K-562 leukemia) was 29.6 µM, the TGI (OVCAR-4 ovarian) was 49.4 µM and the TGI (OVCAR-5 ovarian) was 27 µM. For the same compound, the TGI (RPMI-8226 leukemia) was 46.9 µM, the TGI (RXF 393 renal) was 35 µM and the TGI (SK-OV-3 ovarian) was > 100 µM. It also gave a TGI (SNB-19 CNS) of 54.2 µM.
Cc1cnc2c(c1)C(=O)N(c1ccc(Br)cc1)S2(=O)=O was tested, and the TGI (786-0 renal) was > 100 µM, the TGI (ACHN renal) was > 100 µM and the TGI (CCRF-CEM leukemia) was > 100 µM. The TGI (HCT-116 colon) was > 100 µM, the TGI (HCT-15 colon) was > 100 µM and the TGI (HL-60(TB) leukemia) was > 100 µM. For the same compound, the TGI (HOP-62 NSCLC) was > 100 µM, the TGI (OVCAR-4 ovarian) was > 100 µM and the TGI (OVCAR-5 ovarian) was > 100 µM. The TGI (RPMI-8226 leukemia) was > 100 µM, the TGI (SK-OV-3 ovarian) was > 100 µM and the TGI (SNB-19 CNS) was > 100 µM.
With CCOC(=O)C(CCSC)(CCSC)C(=O)OCC the TGI (786-0 renal) was > 100 µM, the TGI (ACHN renal) was > 100 µM and the TGI (CCRF-CEM leukemia) was > 100 µM. For the same compound, the TGI (HCT-116 colon) was > 100 µM, the TGI (HCT-15 colon) was > 100 µM and the TGI (HOP-62 NSCLC) was > 100 µM. The TGI (K-562 leukemia) was > 100 µM, the TGI (OVCAR-4 ovarian) was > 100 µM and the TGI (OVCAR-5 ovarian) was > 100 µM. For the same compound, the TGI (RPMI-8226 leukemia) was > 100 µM, the TGI (RXF 393 renal) was > 100 µM and the TGI (SK-OV-3 ovarian) was 72.2 µM. The TGI (SNB-19 CNS) was > 100 µM.
In the case of Cc1ccc(C(CCO)CCO)nc1, the TGI (786-0 renal) was > 100 µM, the TGI (ACHN renal) was > 100 µM and the TGI (CCRF-CEM leukemia) was > 100 µM. For the same compound, the TGI (HCT-116 colon) was > 100 µM, the TGI (HCT-15 colon) was > 100 µM and the TGI (HL-60(TB) leukemia) was > 100 µM. The TGI (HOP-62 NSCLC) was > 100 µM, the TGI (OVCAR-4 ovarian) was > 100 µM and the TGI (OVCAR-5 ovarian) was > 100 µM. For the same compound, the TGI (RPMI-8226 leukemia) was > 100 µM, the TGI (RXF 393 renal) was > 100 µM and the TGI (SK-OV-3 ovarian) was > 100 µM. The TGI (SNB-19 CNS) was > 100 µM.
With Clc1ccc2c(c1)CC1C[N+]3=C(CCCCC3)C1=C2 (configuration not stated) the TGI (786-0 renal) was > 100 µM, the TGI (ACHN renal) was > 100 µM and the TGI (CCRF-CEM leukemia) was > 100 µM. The TGI (HCT-116 colon) was > 100 µM, the TGI (HCT-15 colon) was > 100 µM and the TGI (HL-60(TB) leukemia) was > 100 µM. The TGI (HOP-62 NSCLC) was > 100 µM, the TGI (K-562 leukemia) was > 100 µM and the TGI (OVCAR-4 ovarian) was > 100 µM. For the same compound, the TGI (OVCAR-5 ovarian) was > 100 µM, the TGI (RXF 393 renal) was > 100 µM and the TGI (SK-OV-3 ovarian) was > 100 µM. For the same compound, the TGI (SNB-19 CNS) was > 100 µM.
With O=C(/C=C/c1ccc(Cl)cc1)c1nc2ccccc2[nH]1 the TGI (786-0 renal) was 29.6 µM, the TGI (ACHN renal) was > 100 µM and the TGI (CCRF-CEM leukemia) was 16.6 µM. For the same compound, the TGI (HCT-116 colon) was 36.3 µM, the TGI (HCT-15 colon) was 61.4 µM and the TGI (HOP-62 NSCLC) was 50.1 µM. The TGI (K-562 leukemia) was 30.7 µM, the TGI (OVCAR-4 ovarian) was 71.3 µM and the TGI (OVCAR-5 ovarian) was > 100 µM. For the same compound, the TGI (RPMI-8226 leukemia) was 5.18 µM, the TGI (SK-OV-3 ovarian) was > 100 µM and the TGI (SNB-19 CNS) was > 100 µM.
In the case of CC(C)(Cl)C(Cl)CC/C(CBr)=C(\Cl)CBr (configuration not stated), the TGI (786-0 renal) was 2.68 µM, the TGI (ACHN renal) was 13.9 µM and the TGI (CCRF-CEM leukemia) was 0.325 µM. For the same compound, the TGI (HCT-116 colon) was 5.89 µM, the TGI (HCT-15 colon) was 3.51 µM and the TGI (HOP-62 NSCLC) was 4.91 µM. The TGI (OVCAR-4 ovarian) was 2.9 µM, the TGI (OVCAR-5 ovarian) was 5.19 µM and the TGI (RXF 393 renal) was 3.78 µM. It also gave a TGI (SK-OV-3 ovarian) of 13.5 µM and a TGI (SNB-19 CNS) of 29.2 µM.
In the case of CC(C)(C)C1CCC2c3c([nH]c4ccccc34)C3C(=O)N(c4cc(Cl)ccc4Cl)C(=O)C3C2C1 (configuration not stated), the TGI (786-0 renal) was > 100 µM, the TGI (ACHN renal) was > 100 µM and the TGI (CCRF-CEM leukemia) was > 100 µM. The TGI (HCT-116 colon) was > 100 µM, the TGI (HCT-15 colon) was > 100 µM and the TGI (HOP-62 NSCLC) was > 100 µM. For the same compound, the TGI (K-562 leukemia) was > 100 µM, the TGI (OVCAR-5 ovarian) was > 100 µM and the TGI (RPMI-8226 leukemia) was > 100 µM. The TGI (RXF 393 renal) was > 100 µM, the TGI (SK-OV-3 ovarian) was > 100 µM and the TGI (SNB-19 CNS) was > 100 µM.
